This passage reports IC50 results from patent publication US10071086B2, “1H-pyrazolo[3,4-b]pyridines and therapeutic uses thereof” (Samumed, LLC, priority 2012, dated 2018).

Each structure is given as a SMILES string.

This experiment has as its system Wnt pathway. Put plainly: Wnt activity reporter assay (SP5 promoter-luciferase in SW480 cells). In kind it is cell-based. The settings on record: Homo sapiens, SP5 promoter firefly luciferase reporter, read-out: Wnt inhibition. The essentials: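 SW480 cells stably carrying an SP5 promoter (eight TCF/LEF sites)-firefly luciferase reporter were seeded at ~10,000 per well and given half-log compound dilutions from a 10 µM top concentration.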
As to `c1ccc(CNCc2cncc(-c3cnc4[nH]nc(-c5nc6c(-c7ccncc7)cccc6[nH]5)c4c3)c2)cc1` [Compound 654, N-Benzyl-1-(5-(3-(4-(pyridin-4-yl)-1H-benzo[d]imidazol-2-yl)-1H-pyrazolo[3,4-b]pyridin-5-yl)pyridin-3-yl)methanamine], the IC50 was 1500 nM.

With `FC1(F)CCN(Cc2cncc(-c3cnc4[nH]nc(-c5nc6c(-c7ccccn7)cccc6[nH]5)c4c3)c2)C1` [Compound 680, 5-(5-((3,3-Difluoropyrrolidin-1-yl)methyl)pyridin-3-yl)-3-(4-(pyridin-2-yl)-1H-benzo[d]imidazol-2-yl)-1H-pyrazolo[3,4-b]pyridine], the IC50 worked out at 170 nM.

`O=C(Nc1cncc(-c2cnc3[nH]nc(-c4nc5c(N6CCCCC6)cccc5[nH]4)c3c2)c1)c1ccccc1` [Compound 691, N-(5-(3-(4-(Piperidin-1-yl)-1H-benzo[d]imidazol-2-yl)-1H-pyrazolo[3,4-b]pyridin-5-yl)pyridin-3-yl)benzamide]: the IC50 turned out to be 187 nM.

As for `CCCCC(=O)Nc1cncc(-c2cnc3[nH]nc(-c4nc5c(N6CCCCC6)cccc5[nH]4)c3c2)c1` [Compound 698, N-(5-(3-(4-(Piperidin-1-yl)-1H-benzo[d]imidazol-2-yl)-1H-pyrazolo[3,4-b]pyridin-5-yl)pyridin-3-yl)pentanamide], the IC50 stood at 300 nM.

Turning to `O=C(Nc1cncc(-c2cnc3[nH]nc(-c4nc5c(N6CCCCC6)cccc5[nH]4)c3c2)c1)C1CCCC1` [Compound 701, N-(5-(3-(4-(Piperidin-1-yl)-1H-benzo[d]imidazol-2-yl)-1H-pyrazolo[3,4-b]pyridin-5-yl)pyridin-3-yl)cyclopentanecarboxamide], the IC50 came out at 625 nM.

As to `c1cc(N2CCCCC2)c2nc(-c3n[nH]c4ncc(-c5cncc(CNCC6CCCC6)c5)cc34)[nH]c2c1` [Compound 704, 1-Cyclopentyl-N-((5-(3-(4-(piperidin-1-yl)-1H-benzo[d]imidazol-2-yl)-1H-pyrazolo[3,4-b]pyridin-5-yl)pyridin-3-yl)methyl)methanamine], the IC50 was determined as 810 nM.

`Cc1cn(-c2cccc3[nH]c(-c4n[nH]c5ncc(-c6cncc(CN(C)C)c6)cc45)nc23)cn1` [Compound 719, N,N-Dimethyl-1-(5-(3-(4-(4-methyl-1H-imidazol-1-yl)-1H-benzo[d]imidazol-2-yl)-1H-pyrazolo[3,4-b]pyridin-5-yl)pyridin-3-yl)methanamine]: the IC50 turned out to be 200 nM.

With `Cc1cn(-c2cccc3[nH]c(-c4n[nH]c5ncc(-c6cncc(NC(=O)C7CCCCC7)c6)cc45)nc23)cn1` [Compound 728, N-(5-(3-(4-(4-Methyl-1H-imidazol-1-yl)-1H-benzo[d]imidazol-2-yl)-1H-pyrazolo[3,4-b]pyridin-5-yl)pyridin-3-yl)cyclohexanecarboxamide], the IC50 was found to be 39 nM.

For `CCNCc1cncc(-c2cnc3[nH]nc(-c4nc5c(N6CCN(C)CC6)cccc5[nH]4)c3c2)c1` [Compound 738, N-((5-(3-(4-(4-Methylpiperazin-1-yl)-1H-benzo[d]imidazol-2-yl)-1H-pyrazolo[3,4-b]pyridin-5-yl)pyridin-3-yl)methyl)ethanamine], the IC50 turned out to be 550 nM.

Take `CN1CCN(c2cccc3[nH]c(-c4n[nH]c5ncc(-c6cncc(NC(=O)C7CCC7)c6)cc45)nc23)CC1` [Compound 752, N-(5-(3-(4-(4-Methylpiperazin-1-yl)-1H-benzo[d]imidazol-2-yl)-1H-pyrazolo[3,4-b]pyridin-5-yl)pyridin-3-yl)cyclobutanecarboxamide]: the IC50 turned out to be 226 nM.

Regarding `CN1CCN(c2cccc3[nH]c(-c4n[nH]c5ncc(-c6cncc(CN7CCC(F)(F)C7)c6)cc45)nc23)CC1` [Compound 758, 5-(5-((3,3-Difluoropyrrolidin-1-yl)methyl)pyridin-3-yl)-3-(4-(4-methylpiperazin-1-yl)-1H-benzo[d]imidazol-2-yl)-1H-pyrazolo[3,4-b]pyridine], the IC50 came out at 48 nM.

In the case of `Nc1cncc(-c2cnc3[nH]nc(-c4nc5ccccc5[nH]4)c3c2)c1` [Compound 761, 5-(3-(1H-Benzo[d]imidazol-2-yl)-1H-pyrazolo[3,4-b]pyridin-5-yl)pyridin-3-amine], the IC50 stood at 320 nM.

Consider `CN(C)c1cncc(-c2cnc3[nH]nc(-c4nc5ccccc5[nH]4)c3c2)c1` [Compound 765, 5-(3-(1H-Benzo[d]imidazol-2-yl)-1H-pyrazolo[3,4-b]pyridin-5-yl)-N,N-dimethylpyridin-3-amine], for which the IC50 turned out to be 27 nM.

With `CC(C)(C)CC(=O)Nc1cncc(-c2cnc3[nH]nc(-c4nc5ccccc5[nH]4)c3c2)c1` [Compound 774, N-(5-(3-(1H-Benzo[d]imidazol-2-yl)-1H-pyrazolo[3,4-b]pyridin-5-yl)pyridin-3-yl)-3,3-dimethylbutanamide], the IC50 is 200 nM.

Turning to `c1ccc(CNCc2cncc(-c3cnc4[nH]nc(-c5nc6ccccc6[nH]5)c4c3)c2)cc1` [Compound 781, 1-(5-(3-(1H-Benzo[d]imidazol-2-yl)-1H-pyrazolo[3,4-b]pyridin-5-yl)pyridin-3-yl)-N-benzylmethanamine], the IC50 is 1440 nM.

`CCC(=O)Nc1cncc(-c2cnc3[nH]nc(-c4nc5c(-c6ccsc6)cccc5[nH]4)c3c2)c1` [Compound 785, N-(5-(3-(4-(Thiophen-3-yl)-1H-benzo[d]imidazol-2-yl)-1H-pyrazolo[3,4-b]pyridin-5-yl)pyridin-3-yl)propionamide]: the IC50 is 10 nM.

As for `CC(C)C(=O)Nc1cncc(-c2cnc3[nH]nc(-c4nc5c(-c6ccsc6)cccc5[nH]4)c3c2)c1` [Compound 793, N-(5-(3-(4-(Thiophen-3-yl)-1H-benzo[d]imidazol-2-yl)-1H-pyrazolo[3,4-b]pyridin-5-yl)pyridin-3-yl)isobutyramide], the IC50 stood at 16 nM.

Consider `CN(C)Cc1cncc(-c2cnc3[nH]nc(-c4nc5c(-c6ccsc6)cccc5[nH]4)c3c2)c1` [Compound 797, N,N-Dimethyl-1-(5-(3-(4-(thiophen-3-yl)-1H-benzo[d]imidazol-2-yl)-1H-pyrazolo[3,4-b]pyridin-5-yl)pyridin-3-yl)methanamine], for which the IC50 was found to be 32 nM.

Take `c1cc(-c2ccsc2)c2nc(-c3n[nH]c4ncc(-c5cncc(CN6CCCCC6)c5)cc34)[nH]c2c1` [Compound 799, 5-(5-(Piperidin-1-ylmethyl)pyridin-3-yl)-3-(4-(thiophen-3-yl)-1H-benzo[d]imidazol-2-yl)-1H-pyrazolo[3,4-b]pyridine]: the IC50 worked out at 82 nM.

For the compound `O=C(Nc1cncc(-c2cnc3[nH]nc(-c4nc5c(-c6ccsc6)cccc5[nH]4)c3c2)c1)C1CC1` [Compound 803, N-(5-(3-(4-(Thiophen-3-yl)-1H-benzo[d]imidazol-2-yl)-1H-pyrazolo[3,4-b]pyridin-5-yl)pyridin-3-yl)cyclopropanecarboxamide], the IC50 is 17 nM.

Consider `CC(C)(C)C(=O)Nc1cncc(-c2cnc3[nH]nc(-c4nc5c(-c6ccoc6)cccc5[nH]4)c3c2)c1` [Compound 818, N-(5-(3-(4-(Furan-3-yl)-1H-benzo[d]imidazol-2-yl)-1H-pyrazolo[3,4-b]pyridin-5-yl)pyridin-3-yl)pivalamide], for which the IC50 came out at 50 nM.

`CCCC(=O)Nc1cncc(-c2cnc3[nH]nc(-c4nc5c(-c6ccoc6)cccc5[nH]4)c3c2)c1` [Compound 827, N-(5-(3-(4-(Furan-3-yl)-1H-benzo[d]imidazol-2-yl)-1H-pyrazolo[3,4-b]pyridin-5-yl)pyridin-3-yl)butyramide]: the IC50 was determined as 63 nM.
